A short description of this data set: Solubility of SAM compounds in water, visual observation after standing at 25° C. for one day. It counts as physicochemical. The note with it: for water solubility (summary in words): conclusion from Table 1; for solubility at 1 day: water, 25 °C, thermodynamic from solid, 25° C., one day, visual observation, read-out: Solubility (solvent (H2O) allowed to stand at 25° C. for one day). As for the experimental part:
The mixtures were allowed to stand at 25° C. for one day, followed by observation. […] The symbol “x” indicates a resultant in which precipitation and sedimentation were observed, the symbol “Δ” indicates a resultant in which opacity was observed, and the symbol “◯” indicates a resultant having an achromatic and transparent color. • 16-Hydroxy-1-hexadecanethiol (Frontier Scientific) • 11-Hydroxy-1-undecanethiol (Aldrich) • 8-Hydroxy-1-octanethiol (Aldrich) • 6-Hydroxy-1-hexanethiol (Aldrich) • 11-Amino-1-undecanethiol, hydrochloride (Dojindo Laboratories) • 8-Amino-1-octanethiol, hydrochloride (Dojindo Laboratories) • 6-Amino-1-hexanethiol, hydrochloride (Dojindo Laboratories)

Like-named read-outs stand apart in the source and are kept apart here.

Usually solubility stands for the dissolved amount per volume that the medium holds. For `Cl.NCCCCCCS` [6-Amino-1-hexanethiol, hydrochloride], the “water solubility (summary in words)” value was “good water solubility”. Besides, the solubility at 1 day (SAM concentration 0.1 mM) was over 0.1 mM. Under “SAM concentration 1 mM”, the solubility at 1 day is over 1 mM. Where the note is “SAM concentration 5 mM”, the solubility at 1 day is over 5 mM. Moreover, under “SAM concentration 20 mM”, the solubility at 1 day is over 20 mM.
For the compound `OCCCCCCS` [6-Hydroxy-1-hexanethiol], the “water solubility (summary in words)” value is on record as “good water solubility”. For the same compound, the solubility at 1 day (SAM concentration 0.1 mM) was over 0.1 mM. For the same compound, the solubility at 1 day (SAM concentration 1 mM) is over 1 mM. Moreover, the solubility at 1 day (SAM concentration 5 mM) was over 5 mM. The solubility at 1 day (SAM concentration 20 mM) is under 20 mM.
As to `Cl.NCCCCCCCCS` [8-Amino-1-octanethiol, hydrochloride], the “water solubility (summary in words)” value is “good water solubility”. In addition, the solubility at 1 day (SAM concentration 0.1 mM) is over 0.1 mM. For the same compound, under “SAM concentration 1 mM”, the solubility at 1 day is over 1 mM. Also, the solubility at 1 day (SAM concentration 5 mM) is over 5 mM. The solubility at 1 day (SAM concentration 20 mM) is over 20 mM.
With `OCCCCCCCCS` [8-Hydroxy-1-octanethiol], the “water solubility (summary in words)” value is given as “good water solubility”. Moreover, the solubility at 1 day (SAM concentration 0.1 mM) is over 0.1 mM. Also, the solubility at 1 day (SAM concentration 1 mM) was over 1 mM. Also, the solubility at 1 day (SAM concentration 5 mM) is under 5 mM. Moreover, the solubility at 1 day (SAM concentration 20 mM) is under 20 mM.
As to `Cl.NCCCCCCCCCCCS` [11-Amino-1-undecanethiol, hydrochloride], the solubility at 1 day is under 1 mM (SAM concentration 1 mM), under 5 mM (SAM concentration 5 mM) and under 20 mM (SAM concentration 20 mM).
`OCCCCCCCCCCCS` [11-Hydroxy-1-undecanethiol]: the solubility at 1 day runs as follows: (SAM concentration 0.1 mM) under 0.1 mM; (SAM concentration 1 mM) under 1 mM; (SAM concentration 5 mM) under 5 mM; (SAM concentration 20 mM) under 20 mM.
On to `OCCCCCCCCCCCCCCCCS` [16-Hydroxy-1-hexadecanethiol], for which the solubility at 1 day is under 0.1 mM (SAM concentration 0.1 mM), under 1 mM (SAM concentration 1 mM), under 5 mM (SAM concentration 5 mM) and under 20 mM (SAM concentration 20 mM).

For the origin of these results see patent US7563623B2, “Biosensor” (FUJIFILM Corporation, priority 2006, dated 2009).
